What was measured:
[1] = test system: B16 melanoma cells derived from a mouse; experiment: Restraint of melanin production in cultured B16 melanoma cells
[2] = test system: tyrosinase, derived from mushroom; experiment: Inhibition of enzyme activity of mushroom tyrosinase; format: biochemical; conditions: concentration of 0.01-0.1%
Solubility in water = format: physicochemical
Description: The whitening and beautifying preparation suitable for use in a bath according to the present invention means a preparation which can be dissolved in hot water in a bathtub upon bathing to use it, and can be provided as tablets, granules, powder, liquid or the like. It can be formulated according to any process generally used.

[3] = test system: tyrosinase in the B16 melanoma cells; experiment: Amount of tyrosinase in B16 melanoma cells by SDS-PAGE; format: cell-based, mouse; conditions: culture systems added with teprenone
[4] = Mus musculus, B16, read-out: production of melanin restrained, to control

Row | solubility in water (Solubility in water) | SMILES | concentration essential for attaining the same effect of the combined use as kojic acid ([1]; arbutin combined with teprenone, equals 10-30 ppm) | inhibition at 0.0001 % [1, 4] | inhibition at 0.0002 % [1, 4] | inhibition at 0.0003 % [1, 4] | reversibility of the melanin inhibiting action ([1]; cells cultured again in a system containing no teprenone, melanin greatly increased) | cytotoxicity ([1]; sample concentrations 1×10^-4 to 3×10^-4 %) | action to inhibit the enzyme activity of tyrosinase [2] | amount of tyrosinase in the B16 melanoma cells [3]
1 |  | OC[C@H]1O[C@@H](Oc2ccc(O)cc2)[C@H](O)[C@@H](O)[C@@H]1O [arbutin] | 1×10^-3 -3×10^-3% |  |  |  |  |  |  | 
2 | insoluble in water | CC(=O)CCC=C(C)CCC=C(C)CCC=C(C)CCC=C(C)C [teprenone, geranylgeranylacetone] |  | 85% | 80% | 70% | reversible inhibiting action | no cytotoxicity was recognized | did not exhibit any action to inhibit the enzyme activity | decreased in proportion to the concentration of teprenone added
